Test results from ChEMBL document CHEMBL3351578, “Discovery and pharmacological profile of new hydrophilic 5-HT(4) receptor antagonists” (Bioorg Med Chem Lett, 2014).

Tests used:
[1] = molecular target: T1, 5-hydroxytryptamine receptor 4 (Homo sapiens, UniProt Q13639); assay: Antagonist activity against human 5HT4b receptor expressed in HEK293 cells assessed as reduction in 5-HT-stimulated adenylyl cyclase activity; assay type: functional, cell-based
[2] = Lipophilicity, log D of the compound at pH 7.4; assay type: physicochemical; conditions: buffer
[3] = molecular target: T1, 5-hydroxytryptamine receptor 4; assay: Displacement of [3H]GR113808 from human 5HT4b receptor expressed in HEK293 cell membranes
[4] = molecular target: Voltage-gated inwardly rectifying potassium channel KCNH2 (Homo sapiens, UniProt Q12809); assay: Inhibition of human ERG expressed in HEK293 cells assessed as reduction in channel tail current by patch clamp method; assay type: cell-based
[5] = Oral bioavailability in Sprague-Dawley rat at 10 mg/kg after 30 mins to 6 hrs by LC/MS/MS method; assay type: ADME, organism-based; conditions: in vivo
[6] = Elimination half life in Sprague-Dawley rat at 10 mg/kg, po or 1 mg/kg, iv after 30 mins to 6 hrs by LC/MS/MS method; assay type: ADME, organism-based; conditions: in vivo, read-out: beta t1/2
[7] = Tmax in Sprague-Dawley rat at 10 mg/kg, po or 1 mg/kg, iv after 30 mins to 6 hrs by LC/MS/MS method; assay type: ADME, organism-based; conditions: in vivo

T1 sequence (Q13639 whole entry): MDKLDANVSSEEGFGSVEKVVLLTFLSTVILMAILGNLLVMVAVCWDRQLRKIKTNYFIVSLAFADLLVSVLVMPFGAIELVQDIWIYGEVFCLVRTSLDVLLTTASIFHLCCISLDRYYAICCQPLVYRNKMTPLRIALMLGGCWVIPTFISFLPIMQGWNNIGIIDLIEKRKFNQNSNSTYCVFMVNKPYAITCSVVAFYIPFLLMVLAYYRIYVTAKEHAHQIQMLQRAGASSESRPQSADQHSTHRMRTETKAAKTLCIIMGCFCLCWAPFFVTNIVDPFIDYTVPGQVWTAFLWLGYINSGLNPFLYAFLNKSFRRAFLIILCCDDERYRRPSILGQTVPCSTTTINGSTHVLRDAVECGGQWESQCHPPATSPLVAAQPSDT
Chain of Voltage-gated inwardly rectifying potassium channel KCNH2 (Q12809 whole entry): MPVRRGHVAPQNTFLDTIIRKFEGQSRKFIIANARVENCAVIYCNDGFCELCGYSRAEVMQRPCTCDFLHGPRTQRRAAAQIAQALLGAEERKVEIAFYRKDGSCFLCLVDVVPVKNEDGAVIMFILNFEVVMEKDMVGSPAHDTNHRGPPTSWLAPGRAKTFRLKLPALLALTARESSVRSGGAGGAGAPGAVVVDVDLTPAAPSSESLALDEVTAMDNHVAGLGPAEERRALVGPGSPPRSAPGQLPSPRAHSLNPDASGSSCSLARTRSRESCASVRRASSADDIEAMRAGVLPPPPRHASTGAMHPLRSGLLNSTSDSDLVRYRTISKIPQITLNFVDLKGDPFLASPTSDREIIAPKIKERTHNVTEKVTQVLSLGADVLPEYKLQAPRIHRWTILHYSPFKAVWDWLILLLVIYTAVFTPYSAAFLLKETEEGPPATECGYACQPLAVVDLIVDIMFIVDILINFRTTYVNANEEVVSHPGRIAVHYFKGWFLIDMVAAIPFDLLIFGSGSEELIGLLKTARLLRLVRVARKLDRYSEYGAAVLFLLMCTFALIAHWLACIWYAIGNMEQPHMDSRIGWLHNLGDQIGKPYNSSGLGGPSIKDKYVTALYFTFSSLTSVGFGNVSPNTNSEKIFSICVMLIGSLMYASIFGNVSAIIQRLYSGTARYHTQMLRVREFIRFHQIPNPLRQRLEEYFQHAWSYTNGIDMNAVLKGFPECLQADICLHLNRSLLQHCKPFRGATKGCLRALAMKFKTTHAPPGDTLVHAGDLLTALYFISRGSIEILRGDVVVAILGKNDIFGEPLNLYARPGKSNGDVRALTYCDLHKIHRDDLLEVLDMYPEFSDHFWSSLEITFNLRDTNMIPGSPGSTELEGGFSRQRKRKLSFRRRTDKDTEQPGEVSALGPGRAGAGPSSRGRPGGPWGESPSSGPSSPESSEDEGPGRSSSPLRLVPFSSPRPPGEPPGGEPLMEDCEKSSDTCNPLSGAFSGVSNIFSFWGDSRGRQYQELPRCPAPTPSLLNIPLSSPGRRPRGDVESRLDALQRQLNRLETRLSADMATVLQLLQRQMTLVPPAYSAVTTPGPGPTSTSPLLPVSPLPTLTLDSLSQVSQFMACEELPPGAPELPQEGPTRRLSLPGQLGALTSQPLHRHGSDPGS

Cn1cc(C(=O)OCC2CCN(CCNS(C)(=O)=O)CC2)c2ccccc21
pKb [1]: 10.1

CS(=O)(=O)Nc1ccc(CN2CCC(CNC(=O)c3cccc4c3OCCO4)CC2)cc1
logD [2]: 0.5 | Ki [3]: 0.2 nM | pKb [1]: 8.3

CCCCS(=O)(=O)Nc1ccc(CN2CCC(CNC(=O)c3cccc4c3OCCO4)CC2)cc1
logD [2]: 1.8 | Ki [3]: 0.251 nM | pKb [1]: 8

O=C(OCC1CCN(CC2C3CC4C2C4C3C(=O)O)CC1)c1c2n(c3ccccc13)CCCO2 (stereo not given)
logD [2]: 0.7 | Ki [3]: 1.58 nM | pKb [1]: 8.4

CC(C(=O)O)c1ccc(CN2CCC(COC(=O)c3c4n(c5ccccc35)CCCO4)CC2)cc1 (stereo not given)
logD [2]: 1.1 | Ki [3]: 0.316 nM | pKb [1]: 8.8 | IC50 [4]: 25000 nM

CC(C)CS(=O)(=O)Nc1ccc(CN2CCC(CNC(=O)c3cccc4c3OCCO4)CC2)cc1
logD [2]: 1.8 | Ki [3]: 0.2 nM | pKb [1]: 8

CCCCN1CCC(CNC(=O)c2c3n(c4ccccc24)CCCO3)CC1 [PIBOSEROD]
Ki [3]: 0.398 nM | pKb [1]: 10.5

CC(C)CS(=O)(=O)Nc1ccc(CN2CCC(CNC(=O)c3c4n(c5ccccc35)CCCO4)CC2)cc1
logD [2]: 2.2 | Ki [3]: 0.0501 nM | pKb [1]: 9.7

O=C(NCC1CCN(Cc2ccc(NS(=O)(=O)C3CCCCC3)cc2)CC1)c1cccc2c1OCCO2
logD [2]: 2.5 | Ki [3]: 1.26 nM | pKb [1]: 7.6

O=C(NCC1CCN(Cc2ccc(NS(=O)(=O)C3CCCCC3)cc2)CC1)c1c2n(c3ccccc13)CCCO2
logD [2]: 2.7 | Ki [3]: 0.2 nM | pKb [1]: 8

CS(=O)(=O)Nc1ccc(CN2CCC(CNC(=O)c3c4n(c5ccccc35)CCCO4)CC2)cc1
logD [2]: 1 | Ki [3]: 0.2 nM | pKb [1]: 8.3

O=C(OCC1CCN(CC(O)CO)CC1)c1c2n(c3ccccc13)CCCO2 (stereo not given)
logD [2]: 0.2 | Ki [3]: 0.0794 nM | pKb [1]: 9.1 | IC50 [4]: 81000 nM | bioavailability [5]: 10.3% | half-life [6]: 2.5 h | Tmax [7]: 2.42 h

CCCCS(=O)(=O)Nc1ccc(CN2CCC(CNC(=O)c3c4n(c5ccccc35)CCCO4)CC2)cc1
logD [2]: 2.2 | Ki [3]: 1 nM | pKb [1]: 9.7

O=C(NCC1CCN(Cc2ccc(NS(=O)(=O)C3CCCCC3)cc2)CC1)c1c[nH]c2ccccc12
logD [2]: 0.5 | Ki [3]: 501 nM

O=C(NCC1CCN(Cc2ccc(NS(=O)(=O)Cc3ccccc3)cc2)CC1)c1c[nH]c2ccccc12
logD [2]: 1.2 | Ki [3]: 1000 nM
